Assay results: the NIST ThermoML archive (doi:10.1016/j.tca.2005.06.011)
Numbers after ± are expanded uncertainties.

Assay: excess molar enthalpy (molar enthalpy of mixing); xn = mol fraction of the nth substance listed
Settings: 298.15 K, 101 kPa, Liquid, Flow calorimetry

`CC(C)O` [propan-2-ol] + CCCO showed an excess molar enthalpy (x2 = 0.2499) of -0.00906 ± 0.000263 kcal/mol, an excess molar enthalpy (x2 = 0.5) of -0.0108 ± 0.000263 kcal/mol and an excess molar enthalpy (x2 = 0.75) of -0.00837 ± 0.000239 kcal/mol.
